Data on 1 compound can be found in patent US10779532B2, “Methods and compositions for killing of insect pest eggs” (North Carolina State University, priority 2016, dated 2020).

The subject of data set [1] is lice. The experiment in a line: Killing of lice stages. It is filed as in vivo. To be noted: all stages of the lice.
Data set [2] deals with insect pest eggs. The experiment in a line: Exposure of insect pest eggs to formulations, percent killed. It is filed as in vivo. The text has this: As well understood, the percentage of eggs killed may depend on the concentration of the ovicide and the exposure time to the ovicide (e.g., the time for applying). Thus, applying or contacting of the compositions and formulations of the invention generally results in the killing of about 45% to about 100% (e.g., about 45, 50, 55, 60, 65, 70, 75, 80, 85, 90, 95, 100%) of the insect pest eggs for any given time period. However, the compositions and formulations are shown to work very quickly and efficiently, resulting in a killing of 100% of the insect pest eggs following a very short contact or application time. Thus, in some embodiments, a one to five second exposure results in a 100% kill of the insect pest eggs. In some embodiments, exposure of insect pest eggs to a formulation of 1% 2-undecanone and 1% DE for 3 seconds kills about 100% of the insect pest eggs. In some embodiments, exposure of insect pest eggs to a formulation of 8% 2-undecanone and 1% DE for 1 second kills about 100% of the insect pest eggs. In some embodiments, exposure of insect pest eggs to a formulation of 5% 2-undecanone for 1 second kills about 70% of the insect pest eggs. In some embodiments, exposure of insect pest eggs to a formulation of 15% 2-undecanone for about one to about five second kills about 100% of the insect pest eggs. […]

Data set [3] deals with eggs. In words: Residual activity against eggs. To be noted: after application. It is filed as in vivo.
In data set [4] the test system is cotton bollworm eggs. The experiment in a line: Killing insect eggs, cotton bollworm model system (3 second dip, egg hatch over 4 days). To be noted: 2-undecanone from 1 to 8% in absolute ethanol, hatch assessed 4 days, highest level of the dose response. It is filed as in vivo. From the text:
Due to their obligate parasitic lifestyle, lice, head lice, in particular, are very difficult to obtain. Thus, bollworm eggs were used in place of lice eggs for the experiments showing efficacy of the treatments described herein. […] Therefore, it is understood that if the treatment works on bollworm eggs, it will also work on the eggs of head lice. Further, the experiments using body lice, a recognized proxy for head lice, confirmed the effectiveness of the treatment with the formulations of this invention.
All treatments were conducted by dipping the bollworm eggs in the different treatments for 3 seconds, allowing the eggs to dry at room temperature, and then assessing egg hatch for the following 4 days. The eggs typically hatch under these conditions in 2.5 days. The solvent used in these experiments was absolute ethanol.

Data set [5] can be described thus: Evaporation of 2-undecanone after application. It is filed as physicochemical. As to conditions: typically.

As for `CCCCCCCCCC(C)=O` [2-undecanone], the “killing of lice stages” value in data set [1] is given as “kill all stages of the lice”. In addition, the “insect pest eggs killed” value in data set [2] (5% 2-undecanone, exposure 1 second) was “about 70%”; in data set [2] (15% 2-undecanone, exposure about one to about five second), “about 100%”. Moreover, in data set [3], the “residual activity against eggs” value is reported as “minimal residual activity”. Besides, in data set [4], the egg mortality entry is recorded as “about 90%”. Besides, the time to evaporate in data set [5] is no more than 30 min.
